This note sets out measurements from PMC3558931 (Chemistry & biology, 2013).

This assay concerns methyltransferase NcpB. In words: NcpB O-methyltransferase enzyme assay. The settings on record: with NcpB and SAM.
On to `Cc1cc(O)cc(=O)o1`, for which the “substrate of NcpB (O-methylation)” value is given as “not substrates”.
Regarding `Cc1cc(O)c(C)c(=O)o1` [4-hydroxy-3,6-dimethyl-2-pyrone], the “substrate of NcpB (O-methylation)” value was “not substrates”.
As for germicidin A, the “substrate of NcpB (O-methylation)” value is reported as “not substrates”.
